Data from patent US4371463A, “Enzyme-resistant opiate pentapeptides” (priority 1977, dated 1983).
Square brackets hold non-standard residues; d marks the D form. Ends that are not written are not given here. Peptide text beside a SMILES is read from it.

Assays:
rats = test: Analgesia after intracerebral microinjection in rats (tail-flick, flinch-jump, limb pinch); type: in vivo, rat
Method: Sprague-Dawley rats were stereotaxically implanted with chronic indwelling cannulae guides constructed from 23 gauge TW stainless steel tubing and fitted with stilettes of corresponding length. […] Testing was initiated approximately one week following surgery. The compounds being assessed for analgesic activity were dissolved in pyrogen-free water and microinjected at various dose levels in a volume 1 μl through 30 gauge injectors which protruded 2 mm past the guide cannulae tips.
Analgesia was assessed by the D'Amour and Smith "tail-flick" procedure, the "flinch-jump" test, and by subjectively evaluating an animal's reaction to pinches of the limbs with forceps. In the "tail-flick" test, a high intensity light was focused on a rat's tail which had been blackened with a felt-tip pen, and the time that it took an animal to remove its tail from this radiant heat was measured to the nearest 0.5 second. In the "flinch-jump" test, AC shock intensity at which an animal jumped and squealed was quantified 15 minutes after an injection (immediately after testing in the tail-flick test). Reactions to limb pinches were also noted at this time. Baseline measures were always taken approximately one hour prior to injection. All animals were tested at 1, 5, 15, 30, 60, 120, and 180 minutes after injection and then at one hour intervals until their response latencies had recovered to baseline levels.

opiate receptors = test: Opiate receptor affinity by inhibition of stereospecific 3H-naloxone binding to rat brain membranes; conditions: for IC50: rat brain membranes, 1 h at 0° C., 100 mM NaCl, 1.3 nM 3H-naloxone, read-out: Opiate Receptor Affinity (concentration causing 50% inhibition of stereospecific 3H-naloxone binding); for opiate receptor affinity, fold greater than the corresponding L-Ala2 isomer: vs L-Ala2-Met-enkephalin-amide
Method: Male rats weighing 180-200 g (Sprague-Dawley) were decapitated and each brain with the cerebellum removed was homogenized in 150 mls of ice-cold standard buffer (0.05 M Tris-HCl, pH 7.0 at 25° C.). After refrigerated centrifugation at 12,000×g, the membranes were reconstituted in the standard buffer. After recentrifugation, each brain was suspended in 10 mls of the standard buffer. Aliquots of the freshly prepared membrane preparation (100 μl) were incubated for one hour at 0° C. with various concentrations of the pentapeptide and 100 mM NaCl in a final volume of 0.5 ml with ^3 H-naloxane (New England Nuclear, 34 Ci/mmole) in a concentration of 1.3 nM (20,000 cpm). Incubation was begun with the addition of brain membranes, which were added last. After rapid filtration and washing with two 7 ml portions of ice-cold standard buffer, membrane-laden filters were transferred and counted at 40-45% efficiency at least six hours after shaking with detergent scintillation fluor (Aquasol, New England Nuclear). Control incubations containing levallorphan (100 nM) or dextrallorphan (100 nM) were included. Stereospecific binding (^3 H-naloxone bound in the presence of levallorphan subtracted from binding in the presence of dextrallorphan) represented 85-90% of the total bound naloxane in all experiments. Control values in all experiments ranged between 2000-2800 cpm. From a plot of the percent inhibition of stereospecific ^3 H-naloxane binding as a function of pentapeptide concentration, the opiate receptor affinity of the pentapeptide was determined as that concentration of pentapeptide, in μM, causing 50% inhibition of stereospecific ^3 H-naloxone binding. In this test, the lower the numerical value obtained, the higher is the opiate receptor affinity of the pentapeptide.

[1] = test system: rat brain opiate receptors; conditions: cited from earlier work
[2] = Preincubation with rat brain membranes under physiological conditions at 37° C., then residual opiate receptor inhibitory activity; type: in vitro ADME
rat = conditions: cited from earlier work; for duration of analgesia: injected directly into active brain sites
[3] = 5-10 μg microinjected into rat brain

## CSCC[C@H](NC(=O)[C@H](Cc1ccccc1)NC(=O)CNC(=O)[C@@H](C)NC(=O)[C@@H](N)Cc1ccc(O)cc1)C(=O)O [D-Ala^2 -Met-enkephalin]
rats; [3]
  duration of action (analgesia): several hours
rats; microinjected, rat
  analgesia results compared with D-Ala2-Met-enkephalin-amide: quite similar
rats; rat, in vivo
  analgesic effects compared with comparable dose levels of morphine: almost as potent and long-lasting
Opiate receptors
  IC50: 0.4 µM
  opiate receptor affinity, fold greater than the corresponding L-Ala2 isomer: 10 fold

## CSCC[C@H](NC(=O)[C@H](Cc1ccccc1)NC(=O)CNC(=O)CNC(=O)[C@@H](N)Cc1ccc(O)cc1)C(=O)O [Met-enkephalin, H-L-Tyr-Gly-Gly-L-Phe-L-Met-OH]
rats; 120 μg microinjected, rat
  analgesia elicited: relatively low level of analgesia
  time after injection by which analgesia returned to pre-drug level: ≤ 5 min
[1]
  affinity for rat brain opiate receptors relative to morphine: about half
[2]
  preincubation time after which complete loss of opiate receptor inhibitory activity resulted: 20 min
Opiate receptors
  IC50: 0.2 µM
rat
  duration of analgesia: several minutes
rat; rat, in vivo
  analgesic potency, fold weaker than morphine: at least 50 fold

## CSCC[C@H](NC(=O)[C@H](Cc1ccccc1)NC(=O)CNC(=O)[C@@H](Cc1ccccc1)NC(=O)[C@@H](N)Cc1ccc(O)cc1)C(N)=O [D-Phe^2 -Met-enkephalin-amide] (H-Y[dF]GFM-NH2)
Opiate receptors
  IC50: 2 µM

## CSCC[C@H](NC(=O)[C@H](Cc1ccccc1)NC(=O)CNC(=O)[C@H](NC(=O)[C@@H](N)Cc1ccc(O)cc1)C(C)C)C(N)=O [D-Val^2 -Met-enkephalin-amide] (H-Y[dV]GFM-NH2)
rats; microinjected, rat
  dose level needed to produce the same analgesic response as 5 μg of D-Ala2-Met-enkephalin-amide: 20 µg
Opiate receptors
  IC50: 4 µM

## CSCC[C@H](NC(=O)[C@H](Cc1ccccc1)NC(=O)CNC(=O)[C@@H](C)NC(=O)[C@@H](N)Cc1ccc(O)cc1)C(N)=O [D-Ala^2 -Met-enkephalin-amide]
rats; 10 μg microinjected, 1 and 2 hours after injection
  intensity of analgesia compared with 5 μg of morphine: not as intense
rats; 10 μg microinjected, rat
  persistence of analgesia compared with 5 μg of morphine: about the same length of time
rats; [3]
  analgesic effects compared with comparable dose levels of morphine: almost as potent and long-lasting
  duration of action (analgesia): several hours
rats; 5-10 μg microinjected, periaqueductal gray, rat
  analgesia elicited: quite effective in eliciting analgesia
rats; 5-10 μg microinjected, rat
  persistence of analgesia after injection: three
rats; naloxone 2 mg/kg i.p. 15 minutes before 10 μg microinjection
  effect of naloxone preinjection on analgesia: almost complete reversal of analgesia
Opiate receptors
  IC50: 0.4 µM
  opiate receptor affinity, fold greater than the corresponding L-Ala2 isomer: 10 fold

## CSCC[C@H](NC(=O)[C@H](Cc1ccccc1)NC(=O)CNC(=O)[C@H](C)NC(=O)[C@@H](N)Cc1ccc(O)cc1)C(N)=O [L-Ala^2 -Met-enkephalin-amide, reference compound]
rats; 10 μg microinjected, rat
  analgesia elicited: failed to elicit any significant analgesia
[2]
  preincubation time after which complete loss of opiate receptor inhibitory activity resulted: 60 min
Opiate receptors
  IC50: 4 µM

## YPGFM-NH2 [L-Pro^2 -Met-enkephalin-amide]
Opiate receptors
  IC50: 90 µM

## CC(C)C[C@H](NC(=O)[C@H](Cc1ccccc1)NC(=O)CNC(=O)CNC(=O)[C@@H](N)Cc1ccc(O)cc1)C(=O)O [Leu-enkephalin, H-L-Tyr-Gly-Gly-L-Phe-L-Leu-OH, reference compound]
Opiate receptors
  IC50: 0.7 µM

## CSCC[C@H](NC(=O)[C@H](Cc1ccccc1)NC(=O)CNC(=O)CN(C)C(=O)[C@@H](N)Cc1ccc(O)cc1)C(N)=O [Sar^2 -Met-enkephalin-amide]
Opiate receptors
  IC50: 8 µM

## CN1CC[C@]23c4c5ccc(O)c4O[C@H]2[C@@H](O)C=C[C@H]3[C@H]1C5 [morphine]
rat
  duration of analgesia: several hours
